≈ marks a conversion by molar mass, not a printed value. Like-named read-outs stand apart in the source and are kept apart here.
Legend:
[1] = Lyophilisation solubility assay (LYSA); format: physicochemical; conditions: thermodynamic from solid
Method: The solubility of compounds of present invention was assessed by LYSA assay. Samples were prepared in duplicate from 10 mM DMSO stock solutions ([…]) diluted in 30 μL pure DMSO. After evaporation of DMSO with a centrifugal vacuum evaporator, the residue was dissolved in 0.05 M phosphate buffer (150 μL, pH 6.5), which was stirred for one hour and shook for two hours. After one night, the solution was filtered using a microtiter filter plate. Then the filtrate and its 1/10 dilution were analyzed by HPLC-UV. In addition, a four-point calibration curve was prepared from the 10 mM stock solutions and used for the solubility determination of the compounds.

S. aureus (ATCC29213) = test: 50% growth inhibitory concentration (IC50) determination assay, S. aureus; format: cell-based; conditions: Staphylococcus aureus, growth inhibition, Iso-Sensitest broth, OD 600 nm over 16h, <0.098 = the detection limit
Method: (§1) The in vitro antimicrobial activity of the compounds against S. aureus (ATCC29213), K. pneumoniae (ATCC10031), and A. baumannii (ATCC17978), was determined according to the following procedure: The assay used a 10-points Iso-Sensitest broth medium to measure quantitatively the in vitro activity of the compounds against S. aureus ATCC29213, K. pneumoniae ATCC 10031, and A. baumannii ATCC17978. Stock compounds in DMSO were serially two-fold diluted (range from 50 to 0.097 μM final concentration) in 384 wells microtiter plates and inoculated with 49 μL the bacterial suspension in Iso-Sensitest broth medium to have a final cell concentration of ˜5×10^5 CFU/mL in a final volume/well of 50 μL/well. Microtiter plates were incubated at 35±2° C. Bacterial cell growth was determined with the measurement of optical density at λ=600 nm each 20 minutes over a time course of 16h. Growth inhibition was calculated during the logarithmic growth of the bacterial cells with determination of the concentration inhibiting 50% (IC50) of the growth. Compounds of the present invention were tested for their concentration inhibiting 50% (IC50). The data of IC50 over S. aureus (ATCC29213), K. pneumoniae (ATCC10031), and A. baumannii (ATCC17978) are illustrated in Table 4.

[2] = tested on: K. pneumoniae (ATCC10031); test: 50% growth inhibitory concentration (IC50) determination assay, K. pneumoniae; format: cell-based; conditions: Klebsiella pneumoniae, growth inhibition, Iso-Sensitest broth, OD 600 nm over 16h, <0.098 = the detection limit
Method: as §1

A. baumannii (ATCC17978) = test: 50% growth inhibitory concentration (IC50) determination assay, A. baumannii; format: cell-based; conditions: Acinetobacter baumannii, growth inhibition, Iso-Sensitest broth, OD 600 nm over 16h, <0.098 = the detection limit
Method: as §1

[3] = aqueous buffer, 0.05 M phosphate buffer, pH 6.5, HPLC-UV, <1.0 = the detection limit, read-out: Lysa

SMILES	solubility thermodynamic [1, 3] [µg/mL]	IC50 (S. aureus (ATCC29213)) [nM]	IC50 [2] [nM]	IC50 (A. baumannii (ATCC17978)) [nM]	solubility thermodynamic ([1]; pH 6.5, aqueous buffer) [µg/mL]
CNc1cc(F)c(F)c2c1[nH]c1ncc(-c3cnc(OC)nc3)c(N3CCOC(CN)C3)c12 (stereo not drawn) [Example 1.33, 4-[2-(Aminomethyl)morpholin-4-yl]-5,6-difluoro-3-(2-methoxypyrimidin-5-yl)-N-methyl-9H-pyrido[2,3-b]indol-8-amine]	475 (≈ 1040 µM)				
CCNc1cc(F)cc2c1[nH]c1ncc(-c3cncc(C#N)c3)c(N3CCC(F)(CN)C3)c12 (stereo not drawn) [Example 1.10, 5-[4-[3-(Aminomethyl)-3-fluoro-pyrrolidin-1-yl]-8-(ethylamino)-6-fluoro-9H-pyrido[2,3-b]indol-3-yl]pyridine-3-carbonitrile]		312	< 98	< 98	
CNc1cc(F)c(F)c2c1[nH]c1ncc(-c3cnc4ccnn4c3)c(N(C)C)c12 [Example 1.62, 5,6-Difluoro-N4,N4,N8-trimethyl-3-pyrazolo[1,5-a]pyrimidin-6-yl-9H-pyrido[2,3-b]indole-4,8-diamine]		1380	238	< 98	
CNc1cc(F)c(F)c2c1[nH]c1ncc(-c3cncc(C#N)c3)c(N3CCC4(C[C@H]4N)C3)c12 (stereo in doubt) [Example 1.30, 5-[4-[Cis-2-amino-5-azaspiro[2.4]heptan-5-yl]-5,6-difluoro-8-(methylamino)-9H-pyrido[2,3-b]indol-3-yl]pyridine-3-carbonitrile]		1010		< 98	
CNc1cc(F)c(F)c2c1[nH]c1ncc(-c3cnc(OC)nc3)c(N3CCC(C)(CN)C3)c12 (stereo not drawn) [Example 1.36, 4-[3-(Aminomethyl)-3-methyl-pyrrolidin-1-yl]-5,6-difluoro-3-(2-methoxypyrimidin-5-yl)-N-methyl-9H-pyrido[2,3-b]indol-8-amine]	140 (≈ 309 µM)				
CNc1cc(F)c(F)c2c1[nH]c1ncc(-c3cncc(C#N)c3)c(N3C4CNCC3C4)c12 [Example 1.58, 5-(4-(3,6-Diazabicyclo[3.1.1]heptan-6-yl)-5,6-difluoro-8-(methylamino)-9H-pyrido[2,3-b]indol-3-yl)nicotinonitrile]		231		182	320 (≈ 742 µM)
CNc1cc(F)c(F)c2c1[nH]c1ncc(-c3cncc(C#N)c3)c(N3CCC4(CCC4N)C3)c12 (stereo not drawn) [Example 1.49, 5-(4-(1-Amino-6-azaspiro[3.4]octan-6-yl)-5,6-difluoro-8-(methylamino)-9H-pyrido[2,3-b]indol-3-yl)nicotinonitrile]		1320	< 98	143	
CCNc1cc(F)cc2c1[nH]c1ncc(-c3cncc(C#N)c3)c(N3CCCC3CN)c12 (stereo not drawn) [Example 1.06, 5-[4-[2-(Aminomethyl)pyrrolidin-1-yl]-8-(ethylamino)-6-fluoro-9H-pyrido[2,3-b]indol-3-yl]pyridine-3-carbonitrile]	> 625				
CCNc1cc(Cl)cc2c1[nH]c1ncc(-c3cncc(C#N)c3)c(N3CCC(N)C3)c12 (stereo not drawn) [Example 1.03, 5-[4-(3-Aminopyrrolidin-1-yl)-6-chloro-8-(ethylamino)-9H-pyrido[2,3-b]indol-3-yl]pyridine-3-carbonitrile]	32.7 (≈ 75.7 µM)				
CNc1cc(F)cc2c1[nH]c1ncc(-c3cncc(C#N)c3)c(N3C4CNCC3C4)c12 [Example 1.60, 5-(4-(3,6-Diazabicyclo[3.1.1]heptan-6-yl)-6-fluoro-8-(methylamino)-9H-pyrido[2,3-b]indol-3-yl)nicotinonitrile]		842			53 (≈ 128 µM)
CCNc1cc(F)cc2c1[nH]c1ncc(-c3cnc(OC)nc3)c(N3CCC[C@@H](CN)C3)c12 [Example 1.52, (S)-4-(3-(Aminomethyl)piperidin-1-yl)-N-ethyl-6-fluoro-3-(2-methoxypyrimidin-5-yl)-9H-pyrido[2,3-b]indol-8-amine]		993	< 98	< 98	
CNc1cc(F)cc2c1[nH]c1ncc(-c3cncc(C#N)c3)c(N3CC[C@@H](N)C3)c12 [Example 1.01, 5-[4-[(3R)-3-Aminopyrrolidin-1-yl]-6-fluoro-8-(methylamino)-9H-pyrido[2,3-b]indol-3-yl]pyridine-3-carbonitrile]	59 (≈ 147 µM)				
CNc1cc(F)cc2c1[nH]c1ncc(-c3cnc(OC)nc3)c(N3CC(CN)C(F)(F)C3)c12 (stereo not drawn) [Example 3.02, 4-[4-(aminomethyl)-3,3-difluoro-pyrrolidin-1-yl]-6-fluoro-3-(2-methoxypyrimidin-5-yl)-N-methyl-9H-pyrido[2,3-b]indol-8-amine]	196 (≈ 428 µM)				
CNc1cc(F)c(F)c2c1[nH]c1ncc(-c3cncc(C#N)c3)c(N3CCC4(C[C@@H]4N)C3)c12 (stereo in doubt) [Example 1.29, 5-[4-[Trans-2-amino-5-azaspiro[2.4]heptan-5-yl]-5,6-difluoro-8-(methylamino)-9H-pyrido[2,3-b]indol-3-yl]pyridine-3-carbonitrile]	16 (≈ 35.9 µM)	1240		100	
CNc1cc(F)c(F)c2c1[nH]c1ncc(-c3cc[nH]c(=O)c3)c(N(C)C)c12 [Example 1.51, 4-[4-(Dimethylamino)-5,6-difluoro-8-(methylamino)-9H-pyrido[2,3-b]indol-3-yl]-1H-pyridin-2-one]		1040	< 98	< 98	
CNc1cc(F)c(F)c2c1[nH]c1ncc(-c3cncc(C#N)c3)c(N3CC4CC(C3)N4)c12 [Example 1.44, 5-(4-(3,6-Diazabicyclo[3.1.1]heptan-3-yl)-5,6-difluoro-8-(methylamino)-9H-pyrido[2,3-b]indol-3-yl)nicotinonitrile]					270 (≈ 626 µM)

Further lines, with some results ahead:

solubility thermodynamic [1, 3] [µg/mL]	IC50 (S. aureus (ATCC29213)) [nM]	IC50 [2] [nM]	IC50 (A. baumannii (ATCC17978)) [nM]	SMILES	solubility thermodynamic ([1]; pH 6.5, aqueous buffer) [µg/mL]
> 610				CNc1cc(F)c(F)c2c1[nH]c1ncc(-c3cncc(C#N)c3)c(N3CCCC3CN)c12 (stereo not drawn) [Example 1.38, 5-[4-[2-(Aminomethyl)pyrrolidin-1-yl]-5,6-difluoro-8-(methylamino)-9H-pyrido[2,3-b]indol-3-yl]pyridine-3-carbonitrile]	
	369	< 98	< 98	CNc1cc(F)c(F)c2c1[nH]c1ncc(-c3cnc4ccnn4c3)c(N3CC[C@H]4CN(C)C[C@H]43)c12 (relative stereo) [Example 1.50, 4-[Cis-5-methyl-2,3,3a,4,6,6a-hexahydropyrrolo[2,3-c]pyrrol-1-yl]-5,6-difluoro-N-methyl-3-pyrazolo[1,5-a]pyrimidin-6-yl-9H-pyrido[2,3-b]indol-8-amine]	
129 (≈ 297 µM)				CCNc1cc(F)cc2c1[nH]c1ncc(-c3cnc(C4(C(=O)O)CC4)nc3)c(N(C)C)c12 [Example 2.01, 1-[5-[4-(Dimethylamino)-8-(ethylamino)-6-fluoro-9H-pyrido[2,3-b]indol-3-yl]pyrimidin-2-yl]cyclopropanecarboxylic acid]	
194 (≈ 428 µM)				CNc1cc(F)c(F)c2c1[nH]c1ncc(-c3cnc(OC)nc3)c(N3CCC[C@@H](CN)C3)c12 [Example 1.25, 4-[(3S)-3-(Aminomethyl)-1-piperidyl]-5,6-difluoro-3-(2-methoxypyrimidin-5-yl)-N-methyl-9H-pyrido[2,3-b]indol-8-amine]	
44 (≈ 98.3 µM)				CNc1cc(F)c(F)c2c1[nH]c1ncc(-c3cncc(C#N)c3)c(N3CCCC(CN)C3)c12 (stereo not drawn) [Example 1.21, 5-[4-[3-(Aminomethyl)-1-piperidyl]-5,6-difluoro-8-(methylamino)-9H-pyrido[2,3-b]indol-3-yl]pyridine-3-carbonitrile]	
30 (≈ 69.2 µM)				CNc1cc(F)cc2c1[nH]c1ncc(-c3cncc(C#N)c3)c(N3CCC(F)(CN)C3)c12 (stereo not drawn) [Example 1.23, 5-[4-[3-(Aminomethyl)-3-fluoro-pyrrolidin-1-yl]-6-fluoro-8-(methylamino)-9H-pyrido[2,3-b]indol-3-yl]pyridine-3-carbonitrile]	
49 (≈ 109 µM)				CNc1cc(F)c(F)c2c1[nH]c1ncc(-c3cncc(C#N)c3)c(N3CCC[C@@H](CN)C3)c12 [Example 1.40, 5-[4-[(3S)-3-(Aminomethyl)-1-piperidyl]-5,6-difluoro-8-(methylamino)-9H-pyrido[2,3-b]indol-3-yl]pyridine-3-carbonitrile]	
545 (≈ 1240 µM)				CNc1cc(F)c(F)c2c1[nH]c1ncc(-c3cnc(OC)nc3)c(N3CCCC3CN)c12 (stereo not drawn) [Example 1.37, 4-[2-(Aminomethyl)pyrrolidin-1-yl]-5,6-difluoro-3-(2-methoxypyrimidin-5-yl)-N-methyl-9H-pyrido[2,3-b]indol-8-amine]	

Reference: patent publication US20210309657A1, “TRICYCLIC COMPOUNDS FOR THE TREATMENT AND PROPHYLAXIS OF BACTERIAL INFECTION” (Hoffmann-La Roche Inc., priority 2018, published 2021)
